{
  "source": "paper PMC10470313",
  "about": "“Developing a peptide to disrupt cohesin head domain interactions” (iScience, 2023)",
  "key": {"[1]": {"tested_on": "Smc3-GFP (cohesin holocomplex) in yeast protein extract", "assay": "Microscale thermophoresis (MST) binding in yeast cell extract", "conditions": "10 μM CIP3-TAT (Fig S3; method b75: 5 μM), extract of yAM-945 strain, MST binding mode, no binding constants", "protocol": "We validated the in vitro binding of CIP3 to Smc3 by exploring the formation of the complex in a yeast cell extract in which Smc3 was fused to GFP. Protein extract from the yAM-945 strain containing Smc3-GFP was supplemented with 10 μM CIP3-TAT and analyzed by microscale thermophoresis (MST) in binding mode. In this assay, the migration of a fluorescent protein in a microscale temperature gradient is monitored. Changes in the physical-chemical properties of the protein, induced by interaction with another protein or a small molecule, will change the migration properties of the protein. While biochemical constants of the binding cannot be determined under these conditions, as the concentration of Smc3-GFP in the extract is undetermined.\nYeast strain yAM-945 cells containing Smc3-GFP were grown in SD-URA galactose to mid-log phase. Cells were collected by centrifugation and washed with water. The cell pellet was resuspended in 350 μl of MST Buffer (NanoTemper) supplemented with 0.05% Tween-20 (Sigma). Glass beads were added, and cells were lyzed by 4 cycles of 1 minute in a bullet blender (next advance). The protein extract was clarified by centrifugation at 1000 g for 5 minutes. […] The formation of the CIP3-TAT and cohesin complex was analyzed by Monolith NT.115 (NanoTemper) in the binding mode that detects the formation of complexes without calculating the binding constants."}, "[2]": {"tested_on": "yME-961 strain yeast cells", "assay": "Cell cycle stage by flow cytometry", "assay_type": "cell-based", "conditions": "peptide 1 h at G1, release to G2/M arrest", "protocol": "The potential of CIP3-TAT to inhibit cohesion activity was explored by analyzing sister chromatid cohesion in cells arrested at the G2/M. Inserted in the LYS4 locus were LacO arrays, which bind LacI-GFP. In unperturbed cells arrested at the G2/M phase of the cell cycle, cohesin tethers the sister chromatids visualized under the microscope as a single GFP dot. When cohesin is inactivated, the sister chromatids fall apart and are seen as two distinctive GFP dots. yME-961 strain cells were grown to mid-log phase and arrested at the G1 phase of the cell cycle. Cells were divided into three samples, of which two were supplemented with TAT peptide alone or CIP3-TAT for 1 h. Then, the cells were released into the cell cycle until their rearrest at the G2/M phase. Cells were processed for cohesion assay (Figure 4A).\nSupplementary Figure S3. Binding of CIP3-TAT to cohesin by microscale thermophoresis, Related to Figure 3. 10 µM CIP3-TAT was added to protein extracts from strain yAM-945 (Smc3-GFP). The formation of the CIP3-TAT and cohesin complex was analyzed by MST in binding mode. A. MST trace. […]\n3. […] The purified proteins were analyzed on gel, followed by coomassie staining. […]\nSupplementary Figure S5. […] The entry of the peptide into the cells was analyzed by epifluorescence microscopy.\nSupplementary Figure S6. […] The cell cycle stage of the cells, described in Fig. 4B, was determined by flow cytometry. […]"}, "yeast cells, G2/M": {"tested_on": "yeast cells, G2/M", "assay": "Chromosome condensation by two-photon microscopy", "assay_type": "cell-based", "conditions": "nuclear-integrated density divided by circumference, at least 40 nuclei", "protocol": "Chromosome condensation depends on cohesin. However, this cohesin function can be separated from sister chromatid cohesion activity.[45]^,[46] We tested this possibility by analyzing chromatin in G2/M cells via two-photon microscopy.[47]^,[48] Cells were grown and treated as before.\nThe method is described in.[47]^,[48] Briefly, cells were grown to mid-log phase. Two-photon microscopy of live cells was performed with the LSM780 (Zeiss) inverted confocal microscope, using the Chameleon Vision II (Coherent) multiphoton laser (3 W, pulse width 140 fs at peak, repetition rate 80 MHz, tuning range 680-1080 nm, excitation 768 nm/image collection 512 nm). Slides were visualized with X63 N/A 1.4 objective lenses. Cells in G2/M were selected based on their morphology. Images were analyzed using Image J processing software. The condensation level is represented by the division of the nuclear-integrated density by its circumference. The significance between conditions was determined by using Student's t-test."}, "U2OS cells": {"tested_on": "U2OS cells", "assay": "Mitosis time in U2OS cells (live-cell imaging)", "assay_type": "cell-based, human", "conditions": "10 nM peptide, 20 h, images every 5 min", "protocol": "CIP3 was derived from a highly conserved region of Smc1 (Figure 1D). Therefore, we sought to test its ability to affect cohesin activity in human cells. U2OS cells were diluted into a 96-well plate and grown for about 20 h. Added to this was 10 nM peptide and the cells were grown for another 20 h. Images of the cells were taken every 5 min (Figure 5A). We expected cohesion loss to result in a mitotic delay. We calculated mitosis time starting from the first image in which condensed mitotic chromosomes were visualized until their disappearance at mitosis exit. Strikingly, the average mitosis time in CIP3-TAT treated cells increased by about 10% (from 6 to 6.5 min), indicating a mitotic delay (Figure 5B).\nFigure 5 CIP3 causes a mitotic delay in human cells U2OS cells were plated in a 96-well plate and grown for 20 h to allow adherence. […] Mitosis length was determined by counting the number of images in which mitotic chromosomes were visualized. […] (B) Quantitation of mitosis length in untreated and CIP3-TAT treated cells. At least 300 cells were counted for each condition. ∗∗∗p < 0.0001.\nU2OS cells were maintained in Dulbecco's Modified Eagle Medium (DMEM) (Gibco) with 10% fetal bovine serum (FBS) (Corning), 2 mM l-glutamine (Gibco), 1% penicillin-streptomycin (Gibco), and 1 mM sodium pyruvate (Gibco), at 37°C, 5% CO2. […] The significance between conditions was determined by using Student's t-test."}},
  "note": "Where no end group is shown, it is not given here.",
  "data": [
    {"sequence": "KRFKDMEYLSGGEKTGGYGRKKRRQRRR [CIP3-TAT]", "values": [
      {"measurement": "complex formation with Smc3-GFP/cohesin", "setting": "[1]", "result": "supported the formation of the Smc3/CIP3 complex"},
      {"measurement": "cell cycle delay", "setting": "[2]", "result": "No cell cycle delays"},
      {"measurement": "chromatin condensation", "setting": "yeast cells, G2/M", "result": "chromatin was decondensed in comparison with the untreated cells"},
      {"measurement": "average mitosis time", "setting": "U2OS cells; untreated: 6 min, at least 300 cells per condition", "result": 6.5, "unit": "min"},
      {"measurement": "increase of average mitosis time", "setting": "U2OS cells; vs untreated", "result": "about 10%"}
    ]}
  ]
}
